Reference: ChEMBL document CHEMBL6078724, “Discovery of the first examples of right open reading frame kinase 2 (RIOK2) molecular glue degraders” (Eur J Med Chem, 2025)
Active and inactive are the calls of the source. The rule behind the calls is not given here.

Assays:
[1] = test system: MOLT-4; test: Induction of cell cycle arrest in human MOLT-4 cells assessed as decrease in cyclin B1 level by Western blot analysis; format: functional, cell-based; details: dose <= 900.0 nM
[2] = test system: Mus musculus; test: In vivo molecular glue degradation activity at RNF126/RIOK2 in SCID-CB17 mouse xenografted with human MOLT-4 cells assessed as induction of RIOK2 degradation in tumor at 10 mg/kg, ip for 18 days measured after 4 hrs post-last dose; format: functional, organism-based; details: time 436.0 hrs
[3] = test system: HL-60; test: Antiproliferative activity against human HL-60 cells incubated for 72 hrs by CCK8 assay; format: functional, cell-based; details: HL-60, 72 h
[4] = test system: MOLT-4; test: Induction of apoptosis in human MOLT-4 cells assessed as increase in cleaved caspase-9 level by Western blot analysis; format: functional, cell-based; details: dose <= 900.0 nM
[5] = test system: MOLT-4; test: Antiproliferative activity against human MOLT-4 cells incubated for 72 hrs by CCK8 assay; format: functional, cell-based; details: MOLT-4, 72 h
[6] = target: T1, E3 ubiquitin-protein ligase RNF126/Serine/threonine-protein kinase RIO2 (Homo sapiens, UniProt Q9BVS4+Q9BV68); test: Molecular glue degradation activity at RNF126/RIOK2 in human ASPC1 cells assessed as induction protein degradation by immunoblot analysis; format: cell-based
Target sequence in this assay (Q9BVS4 whole entry): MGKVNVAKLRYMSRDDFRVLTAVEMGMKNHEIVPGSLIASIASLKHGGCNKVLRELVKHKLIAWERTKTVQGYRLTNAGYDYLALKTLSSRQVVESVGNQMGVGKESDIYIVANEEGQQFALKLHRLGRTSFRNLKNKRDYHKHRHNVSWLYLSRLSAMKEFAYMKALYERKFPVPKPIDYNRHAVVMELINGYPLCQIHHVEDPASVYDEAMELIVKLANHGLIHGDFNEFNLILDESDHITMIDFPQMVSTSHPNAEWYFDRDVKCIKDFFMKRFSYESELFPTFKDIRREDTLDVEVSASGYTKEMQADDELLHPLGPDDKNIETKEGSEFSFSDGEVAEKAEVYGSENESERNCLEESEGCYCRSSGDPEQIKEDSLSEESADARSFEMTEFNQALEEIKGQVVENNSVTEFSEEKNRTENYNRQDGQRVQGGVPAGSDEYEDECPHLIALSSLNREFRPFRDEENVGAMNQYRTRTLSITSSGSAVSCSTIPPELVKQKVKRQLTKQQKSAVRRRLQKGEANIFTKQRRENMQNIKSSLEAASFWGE
Target sequence in this assay (Q9BV68 whole entry): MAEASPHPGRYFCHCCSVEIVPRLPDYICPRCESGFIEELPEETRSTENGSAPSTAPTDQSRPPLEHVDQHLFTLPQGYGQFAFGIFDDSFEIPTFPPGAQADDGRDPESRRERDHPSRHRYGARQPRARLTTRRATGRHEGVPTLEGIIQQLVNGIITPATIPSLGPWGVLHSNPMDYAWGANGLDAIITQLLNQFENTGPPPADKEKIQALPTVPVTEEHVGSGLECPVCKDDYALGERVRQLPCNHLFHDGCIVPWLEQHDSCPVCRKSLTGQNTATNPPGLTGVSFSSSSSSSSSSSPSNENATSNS

[7] = target: T1, E3 ubiquitin-protein ligase RNF126/Serine/threonine-protein kinase RIO2; test: Molecular glue degradation activity at RNF126/RIOK2 in human HL-60 cells assessed as induction protein degradation by immunoblot analysis; format: cell-based
Target sequence in this assay (Q9BVS4 whole entry): as the sequence (Q9BVS4 whole entry) above
Target sequence in this assay (Q9BV68 whole entry): as the sequence (Q9BV68 whole entry) above

[8] = target: T1, E3 ubiquitin-protein ligase RNF126/Serine/threonine-protein kinase RIO2; test: Molecular glue degradation activity at RNF126/RIOK2 in human HeLa cells assessed as induction protein degradation by immunoblot analysis relative to control; format: cell-based
Target sequence in this assay (Q9BV68 2-311 partner limits assumed): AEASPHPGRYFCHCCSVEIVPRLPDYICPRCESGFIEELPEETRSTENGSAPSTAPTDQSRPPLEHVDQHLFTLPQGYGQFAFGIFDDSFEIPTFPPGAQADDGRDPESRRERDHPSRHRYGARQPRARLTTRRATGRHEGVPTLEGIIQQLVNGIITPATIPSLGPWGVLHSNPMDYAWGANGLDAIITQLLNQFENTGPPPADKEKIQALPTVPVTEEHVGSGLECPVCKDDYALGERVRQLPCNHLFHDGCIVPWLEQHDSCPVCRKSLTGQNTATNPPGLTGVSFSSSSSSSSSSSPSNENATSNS
Target sequence in this assay (Q9BVS4 whole entry): as the sequence (Q9BVS4 whole entry) above

[9] = test system: A549; test: Antiproliferative activity against human A549 cells incubated for 72 hrs by CCK8 assay; format: functional, cell-based; details: A549, 72 h
[10] = target: T1, E3 ubiquitin-protein ligase RNF126/Serine/threonine-protein kinase RIO2; test: Molecular glue degradation activity at RNF126/RIOK2 in human HL-60 cells assessed as induction protein degradation by immunoblot analysis relative to control; format: cell-based
Target sequence in this assay (Q9BV68 2-311 partner limits assumed): as the sequence (Q9BV68 2-311 partner limits assumed) above
Target sequence in this assay (Q9BVS4 whole entry): as the sequence (Q9BVS4 whole entry) above

[11] = test system: OCI-Ly3; test: Antiproliferative activity against human OCILY3 cells incubated for 72 hrs by CCK8 assay; format: functional, cell-based; details: OCI-Ly3, 72 h
[12] = AUClast in Sprague-Dawley rat at 10 mg/kg, ip measured for 24 hrs; format: ADME, organism-based; details: in vivo
[13] = test system: HeLa; test: Antiproliferative activity against human HeLa cells incubated for 72 hrs by CCK8 assay; format: functional, cell-based
[14] = Clearance in Sprague-Dawley rat at 5 mg/kg, iv measured for 24 hrs; format: ADME, organism-based; details: in vivo
[15] = target: T1, E3 ubiquitin-protein ligase RNF126/Serine/threonine-protein kinase RIO2; test: Molecular glue degradation activity at RNF126/RIOK2 in human MOLT-4 cells assessed as increase in ubiquitination of RIOK2 at 1 uM incubated for 10 hrs by immunoblot analysis; format: cell-based
Target sequence in this assay (Q9BV68 2-311 partner limits assumed): as the sequence (Q9BV68 2-311 partner limits assumed) above
Target sequence in this assay (Q9BVS4 whole entry): as the sequence (Q9BVS4 whole entry) above

[16] = target: T1, E3 ubiquitin-protein ligase RNF126/Serine/threonine-protein kinase RIO2; test: Molecular glue degradation activity at RNF126/RIOK2 in MLN4924-treated human MOLT-4 cells assessed as induction protein degradation at 1 uM incubated for 12 hrs by immunoblot analysis; format: cell-based
Target sequence in this assay (Q9BV68 2-311 partner limits assumed): as the sequence (Q9BV68 2-311 partner limits assumed) above
Target sequence in this assay (Q9BVS4 whole entry): as the sequence (Q9BVS4 whole entry) above

[17] = Cmax in Sprague-Dawley rat at 10 mg/kg, ip measured for 24 hrs; format: ADME, organism-based; details: in vivo
[18] = Antiproliferative activity against mouse NIH3T3 cells incubated for 72 hrs by CCK8 assay; format: toxicity, cell-based
[19] = test system: MOLT-4; test: Induction of apoptosis in human MOLT-4 cells incubated for 48 hrs by Annexin V-FITC/PI staining based flow cytometry; format: functional, cell-based; details: dose <= 900.0 nM
[20] = Antiproliferative activity against HEK293 cells incubated for 72 hrs by CCK8 assay; format: toxicity, cell-based; details: human
[21] = target: T1, E3 ubiquitin-protein ligase RNF126/Serine/threonine-protein kinase RIO2; test: Molecular glue degradation activity at RNF126/RIOK2 in CHX-treated human MOLT-4 cells assessed as half life of RIOK2 at 2 uM by immunoblot analysis (reference value: 12.5 hrs); format: cell-based
Target sequence in this assay (Q9BV68 2-311 partner limits assumed): as the sequence (Q9BV68 2-311 partner limits assumed) above
Target sequence in this assay (Q9BVS4 whole entry): as the sequence (Q9BVS4 whole entry) above

[22] = Oral bioavailability in Sprague-Dawley rat at 10 mg/kg measured for 24 hrs; format: ADME, organism-based; details: in vivo
[23] = test system: ASPC1; test: Antiproliferative activity against human ASPC1 cells incubated for 72 hrs by CCK8 assay; format: functional, cell-based; details: ASPC1, 72 h
[24] = Half life in Sprague-Dawley rat at 10 mg/kg, ip measured for 24 hrs; format: ADME, organism-based; details: in vivo
[25] = target: T1, E3 ubiquitin-protein ligase RNF126/Serine/threonine-protein kinase RIO2; test: Molecular glue degradation activity at RNF126/RIOK2 in human MOLT-4 cells assessed as induction protein degradation incubated for 12 hrs by immunoblot analysis; format: cell-based
[26] = target: T1, E3 ubiquitin-protein ligase RNF126/Serine/threonine-protein kinase RIO2; test: Molecular glue degradation activity at RNF126/RIOK2 in human OCILY3 cells assessed as induction protein degradation by immunoblot analysis relative to control; format: cell-based
Target sequence in this assay (Q9BV68 2-311 partner limits assumed): as the sequence (Q9BV68 2-311 partner limits assumed) above
Target sequence in this assay (Q9BVS4 whole entry): as the sequence (Q9BVS4 whole entry) above

[27] = Antiproliferative activity against human MRC5 cells incubated for 72 hrs by CCK8 assay; format: toxicity, cell-based
[28] = Half life in Sprague-Dawley rat at 5 mg/kg, iv measured for 24 hrs; format: ADME, organism-based; details: in vivo
[29] = target: T1, E3 ubiquitin-protein ligase RNF126/Serine/threonine-protein kinase RIO2; test: Molecular glue degradation activity at RNF126/RIOK2 in MG132-treated human MOLT-4 cells assessed as induction protein degradation at 1 uM incubated for 12 hrs by immunoblot analysis; format: cell-based
[30] = target: T1, E3 ubiquitin-protein ligase RNF126/Serine/threonine-protein kinase RIO2; test: Molecular glue degradation activity at RNF126/RIOK2 in human HeLa cells assessed as induction protein degradation by immunoblot analysis; format: cell-based
Target sequence in this assay (Q9BVS4 whole entry): as above
Target sequence in this assay (Q9BV68 whole entry): as the sequence (Q9BV68 whole entry) above

[31] = AUClast in Sprague-Dawley rat at 5 mg/kg, iv measured for 24 hrs; format: ADME, organism-based; details: in vivo
[32] = target: T1, E3 ubiquitin-protein ligase RNF126/Serine/threonine-protein kinase RIO2; test: Molecular glue degradation activity at RNF126/RIOK2 in JP-2-196-treated human MOLT-4 cells assessed as induction protein degradation at 1 uM incubated for 12 hrs by immunoblot analysis; format: cell-based
[33] = test system: MOLT-4; test: Induction of apoptosis in human MOLT-4 cells assessed as decrease in PARP level by Western blot analysis; format: functional, cell-based; details: dose <= 900.0 nM
[34] = target: T1, E3 ubiquitin-protein ligase RNF126/Serine/threonine-protein kinase RIO2; test: Molecular glue degradation activity at RNF126/RIOK2 in human A549 cells assessed as induction protein degradation by immunoblot analysis; format: cell-based
Target sequence in this assay (Q9BVS4 whole entry): as the sequence (Q9BVS4 whole entry) above
Target sequence in this assay (Q9BV68 whole entry): as the sequence (Q9BV68 whole entry) above

[35] = target: T1, E3 ubiquitin-protein ligase RNF126/Serine/threonine-protein kinase RIO2; test: Molecular glue degradation activity at RNF126/RIOK2 in human K562 cells assessed as induction protein degradation by immunoblot analysis; format: cell-based
Target sequence in this assay (Q9BVS4 whole entry): as the sequence (Q9BVS4 whole entry) above
Target sequence in this assay (Q9BV68 whole entry): as the sequence (Q9BV68 whole entry) above

[36] = test system: U-937; test: Antiproliferative activity against human U-937 cells incubated for 72 hrs by CCK8 assay; format: functional, cell-based; details: U-937, 72 h
[37] = target: T1, E3 ubiquitin-protein ligase RNF126/Serine/threonine-protein kinase RIO2; test: Molecular glue degradation activity at RNF126/RIOK2 in human MOLT-4 cells assessed as induction protein degradation incubated for 12 hrs by immunoblot analysis relative to control; format: cell-based
[38] = target: T1, E3 ubiquitin-protein ligase RNF126/Serine/threonine-protein kinase RIO2; test: Molecular glue degradation activity at RNF126/RIOK2 in human MOLT-4 cells assessed as decrease in AKT level at 500 nM incubated for 12 hrs by immunoblot analysis; format: cell-based
[39] = Toxicity in SCID-CB17 mouse xenografted with human MOLT-4 cells assessed as body weight loss at 10 mg/kg, ip for 18 days; format: organism-based; details: in vivo, 432 h, time 18 day
[40] = test system: MOLT-4; test: Induction of cell cycle arrest in human MOLT-4 cells assessed as accumulation at G2/M phase incubated for 24 hrs by PI staining based flow cytometry; format: functional; details: dose <= 900.0 nM
[41] = test system: MOLT-4; test: Induction of cell cycle arrest in human MOLT-4 cells assessed as decrease in CDK2 level by Western blot analysis; format: functional, cell-based; details: dose <= 900.0 nM
[42] = test system: MOLT-4; test: Induction of apoptosis in human MOLT-4 cells at 900 nM incubated for 48 hrs by Annexin V-FITC/PI staining based flow cytometry relative to control; format: functional
[43] = test system: MOLT-4; test: Antitumor activity against human MOLT-4 cells xenografted in SCID-CB17 mouse at 10 mg/kg, ip for 18 days relative to control; format: functional; details: MOLT-4, 432 h, time 18 day, read-out: TGI
[44] = Cmax in Sprague-Dawley rat at 5 mg/kg, iv measured for 24 hrs; format: ADME, organism-based; details: in vivo

In the case of COc1ccc(-c2ccc3[nH]c(=O)c4nnn(-c5ccc(N6CCN(C(=O)/C=C/C(=O)c7ccc(F)cc7)CC6)c(C(F)(F)F)c5)c4c3c2)cn1, the Activity [1] is reported as “Dose-dependent-effect”, the Activity [2] is reported as “Active” and the IC50 [3] is reported as 340 nM. For the same molecule, the Activity [4] was “Dose-dependent-effect”, the IC50 [5] was 130 nM and the DC50 [6] was > 10000 nM. The DC50 [7] was 550 nM, the Emax [8] was 50.3% and the IC50 [9] was 1060 nM. For the same molecule, the Emax [10] was 74.6%, the IC50 [11] was 120 nM and the AUClast [12] was 1200 ng·h/mL. The IC50 [13] was 580 nM, the clearance [14] was 69.2 mL/min/kg and the Activity [15] was “Active”. For the same molecule, the Activity [16] was “inactive”, the Cmax [17] was 90.6 ng/mL and the IC50 at 72 h [18] was 1060 nM. The Activity [19] was “Dose-dependent-effect”, the IC50 at 72 h [20] was 1050 nM and the T1/2 [21] was 9.6 h. For the same molecule, the bioavailability [22] was 49.7%, the IC50 [23] was 1130 nM and the half-life [24] was 8.1 h. For the same molecule, the DC50 [25] was 410 nM, the Activity ([25]; dose <= 10.0 µM) was “Dose-dependent-effect” and the Emax [26] was 66.9%. For the same molecule, the IC50 at 72 h [27] was 1090 nM, the half-life [28] was 0.6 h and the Activity [29] was “inactive”. For the same molecule, the DC50 [30] was 8700 nM, the AUClast [31] was 1210 ng·h/mL and the Activity [32] was “inactive”. For the same molecule, the Activity [33] was “Dose-dependent-effect”, the DC50 [34] was > 10000 nM and the DC50 [35] was > 10000 nM. The IC50 [36] was 410 nM, the Emax [37] was 83.4% and the Activity [38] was “Active”. For the same molecule, the Activity [39] was “Non-toxic”, the Activity [40] was “Dose-dependent-effect” and the Activity [41] was “Dose-dependent-effect”. The Activity [42] was 57.11%, the inhibition in vivo at 10 mg/kg [43] was 18.6% and the Cmax [44] was 1440 ng/mL.
